We go through three compounds from US10774081B2, “Indolo substituted piperidine compound as estrogen receptor down-regulator” (LUOXIN PHARMACEUTICAL (SHANGHAI) CO., LTD., priority 2016, dated 2020).

The test system of one series is MCF-7 cells. Nature of the series: MCF-7 Cell Proliferation Inhibition Assay. It is filed as cell-based. As to conditions: Homo sapiens, MCF7, 144 h, 6 days incubation, CellTiter-Glo, read-out: MCF-7 cell proliferation suppression. On the procedure: (1) MCF-7 Cell Proliferation Inhibition Assay
Substrate RPMI 1640, fetal calf serum, reagent Promega CellTiter-Glo. MCF-7 cell lines were purchased from the European Cell Culture Collection (ECACC). Envision multi-lable analyzer (PerkinElmer).
MCF-7 cells were seeded in black 384-well plates, each of the well has 600 cells in […] of cell suspension. The cell plates were placed in a carbon dioxide incubator overnight.
The compound to be tested was diluted by 5 times for 10 concentrations with Epmotion, ie., dilution from 0.25 mmol to 1.28 nmol, and replicated. 198 μl Medium was added to the middle plate, and 2 μl of each well of the gradient diluted compound was transferred to the correspondent position on the middle plate, and then 20 μl of each well was transferred to the cell plate after mixing. Then the cell plate was incubated in a carbon dioxide incubator for 6 days.
25 μl Promega CellTiter-Glo reagent was added into each well of the cell plate, the cell plate was then incubated for 10 mins at room temperature to stabilize the luminescence signal. PerkinElmer Envision multi-label analyser was used for readings.
The original data is converted to the inhibition rate using the equation (Max−Ratio)/(Max−Min)*100%, the value of IC50 also can be obtained by the curve fitting with four parameters. (by 205 model in XLFIT5,iDBS)

The next series deals with T1, estrogen receptor (Homo sapiens, UniProt P03372).
T1 construct: endogenous in cells; host or cells: MCF-7 (ECACC)
T1 sequence (P03372 1-595): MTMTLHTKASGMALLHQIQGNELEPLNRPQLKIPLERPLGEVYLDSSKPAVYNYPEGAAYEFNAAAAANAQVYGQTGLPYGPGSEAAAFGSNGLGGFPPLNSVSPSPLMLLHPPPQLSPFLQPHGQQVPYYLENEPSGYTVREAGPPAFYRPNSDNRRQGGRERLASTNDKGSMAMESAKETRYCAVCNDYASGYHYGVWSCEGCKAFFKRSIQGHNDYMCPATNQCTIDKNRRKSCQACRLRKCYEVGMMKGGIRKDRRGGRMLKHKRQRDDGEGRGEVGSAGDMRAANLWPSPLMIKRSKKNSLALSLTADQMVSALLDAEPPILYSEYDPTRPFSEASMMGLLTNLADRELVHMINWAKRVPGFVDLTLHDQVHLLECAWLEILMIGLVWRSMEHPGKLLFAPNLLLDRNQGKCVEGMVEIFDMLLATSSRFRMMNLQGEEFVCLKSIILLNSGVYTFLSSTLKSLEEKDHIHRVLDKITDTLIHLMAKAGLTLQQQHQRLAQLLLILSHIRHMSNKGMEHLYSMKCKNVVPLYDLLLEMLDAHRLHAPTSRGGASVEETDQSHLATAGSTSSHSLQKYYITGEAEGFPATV
The experiment in a line: ER Degradation in MCF-7 Cell. It is filed as cell-based. As to conditions: MCF-7 cells, 20 hours incubation, ER antibody infrared fluorescence; read-out: MCF-7 ER degradation IC50 intracellular.

Series [1] can be described thus: Tissue distribution evaluation of the drug (plasma and brain). As to conditions: mouse, mice, dosage 10 mpk, 21th day after administration, tissue collected near Tmax, read-out: Ratio of drug concentration Brain tissue/plasma. It is filed as in vivo. On the procedure:
Experiment 2: Tissue Distribution Evaluation of the Drug
On the 21th day after administration, select randomly three mice from the drug-administrated group, and collect their plasma samples at different timing, the mice were euthanized near Tmax, and the tumor, brain and breast samples were collected.
The procedure of collecting the plasma and tissue samples are as follows:
Plasma: Blood (60 μl) was collected using a 1.5 ml EDTA-K2 anticoagulation tube, the plasma was obtained after immediately centrifugation at 7000 rpm, at 4° C. for 10 mins, then the plasma simple was stored at −80° C. for drug concentration determination.
Tissue: Brain was collected using a 5 ml cryotube and immediately quick froze in liquid nitrogen. After sampling, tissues were stored at −80° C. for drug concentration determination used for comparing the distribution.

For series [2] the following is noted: in vivo; cited from earlier work.
The subject of the next series is breast cancer. As to conditions: intramuscularly administrated; cited from earlier work.

Experimental for estrogen receptor: Substrate RPMI 1640, fetal calf serum, PBS, 16% paraformaldehyde, Triton, confining liquid, estrogen receptor antibody, near0infrared goat anti-rabbit secondary antibody, DRAQ5 dye. The MCF-7 cell lines were purchased from the European Cell Culture Collection (ECACC). Odyssey infrared fluorescence scanning imaging system.
The MCF-7 cell was seeded in the black 384-well plate, each of the well has 3200 cells in 30 ml cell suspension. The cell plate were incubated in a carbon dioxide incubator for 4 days.
198 μl Medium was added into the middle plate and 2 μl each well of the gradient diluted compound was transferred to the correspond position on the middle plate, then the compound was transferred 20 μl per well after mixing to the cell plate. The cell plate was then incubated in a carbon dioxide incubator for 20 hours.
50 μl 8% Paraformaldehyde was added into each well of the cell plate, after incubation at room temperature for 30 min, the plate was washed by PBS twice, pat dried and 50 ul PBS containing 0.1% Triton was added, the plate was incubated at room temperature for 15 mins, then washed with PBS for 5 times, pat dried and 50 ul confining liquid was added and incubated at room temperature for 1 hour, pat dried and 50 ul confining liquid containing 0.1% estrogen receptor antibody was added and then left at 4° C. overnight. […]

Take `CC1Cc2c([nH]c3ccccc23)C(c2c(F)cc(OCCN3CC(CC#N)C3)cc2F)N1CC(F)(F)F` (stereo not shown) [(I)]: in the series with MCF-7 cells, the IC50 was 1.17 nM. The DC50 on estrogen receptor was determined as 1.13 nM. For the same compound, the Kp in series [1] stood at 13.1.

For the compound `C[C@@H]1Cc2c([nH]c3ccccc23)[C@@H](c2c(F)cc(OCCN3CC(CF)C3)cc2F)N1CC(C)(C)F` [(II)], the Kp in series [1] worked out at 5.8.

On to `C[C@]12CC[C@@H]3c4ccc(O)cc4C[C@@H](CCCCCCCCC[S+]([O-])CCCC(F)(F)C(F)(F)F)[C@H]3[C@@H]1CC[C@@H]2O` (stereo partly shown) [Fulvestrant], for which the IC50 in the series with MCF-7 cells was 1.77 nM. For the same compound, in series [2], the oral bioavailability result is “zero”. Besides, in the series on breast cancer, the “breast cancer patients showing clinical response” value was 50%.
